Results on 1 compound are retold here after US20100179130A1, “USE OF PIPERINE AND DERIVATIVES THEREOF FOR THE THERAPY OF NEUROLOGICAL CONDITIONS” (SYNGIS Bioscience GmbH & Co. KG, priority 2007, published 2010).

In one data set the test system is SH-SY5Y neuronal cells. The experiment in a line: In vitro anti-apoptosis assay, staurosporine induced apoptosis, Caspase-Glo 3/7. It counts as cell-based, human.
For data set [1] the following is noted: cited from earlier work.
A further data set has as its system adult rats. As to the kind of experiment: Neurogenesis in vivo, BrdU/NeuN co-staining of hippocampal slices. Set-up: species or system rat. The following applies: 6 weeks. How it is done:
Male adult rats were divided in three groups. The rats were treated i.p. with 20% Solutol-HS15 (BASF SE) as vehicle (control group, n=11), 1 mg/kg bodyweight piperine (piperine I group, n=14 with total dose of 5 mg/kg piperin), or 10 mg/kg bodyweight piperine (piperine II group, n=13 with total dose of 50 mg/kg) once daily for 5 consecutive days. Piperine was solved in 20% Solutol-HS15 as described in Example 7. Further, all animals received BrdU (i.p. 50 mg/kg bodyweight) twice daily during these initial 5 days. BrdU is stably incorporated by dividing cells and therefore a suitable tool for the labelling of cells that divided within an experimentally defined time-window (i.e. the time during which BrdU was administered, which in the present example corresponds to the time during which Piperine was administered (Bagley et al BMC Neurosci. 2007; 8:92). The animals were sacrificed 6 weeks after the beginning of the treatment. Brains were removed rapidly, fixed with 4% paraformaldehyd and stored in 4% paraformaldehyd for further immunohistochemical analysis. 10 μm slices of the hippocampal area were generated and stained with sheep-anti-BrdU antibodies (Abcam, 1:100) and mouse-anti-NeuN antibodies (Chemicon, 1:500). Subsequently, the slices were stained for fluorescent detection with anti-sheep-biotin plus streptavidin-Cy2 and anti-mouse-Alexa555 (Molecular Probes, Fisher). […]

The conditions of data set [2]: cited from earlier work. The source holds these as a separate data set.
For data set [3] the following is noted: in vivo; cited from earlier work.
In data set [4] the test system is motoneural cell line NSC-34. The experiment in a line: Anti-apoptosis assay on motoneural cell line, staurosporine induced apoptosis, Caspase-Glo 3/7. It counts as cell-based. The following applies: compound 1 μM in the presence of staurosporine 0.1 μM. As for the experimental part:
Instead of the SH-SY5Y cells used in Example 3 and 4, this analysis was performed with motoneural cell line NSC-34. […] Incubation with staurosporine (SP; 0.1 μM) alone served as positive control and incubation with vehicle served as negative control. The degree of apoptosis relative to the staurosporine control is shown in FIG. 4 (vehicle (sham): 6%; staurosporine (SP): 100%; piperine plus staurosporine: 70%; derivative B plus staurosporine: 55%; derivative E plus staurosporine: 75%; derivative G plus staurosporine: 76%; derivative K plus staurosporine: 83%; derivative S plus staurosporine: 77%; derivative U plus staurosporine: 71%).

The conditions of data set [5]: oral, approximately 5 to 20 mg daily, human patients; cited from earlier work.
The test system of data set [6] is carageenan-induced rat paw edema. The conditions noted are these: in vivo; cited from earlier work.
In a further data set the test system is mice. The conditions noted are these: cited from earlier work.

For `O=C(/C=C/C=C/c1ccc2c(c1)OCO2)N1CCCCC1` [Piperine, (E,E)-1-[5-(1,3-benzodioxol-5-yl)-1-oxo-2,4-pentadienyl]piperidine], the “degree of apoptosis relative to the staurosporine control” value with SH-SY5Y neuronal cells (compound 1 μM in the presence of staurosporine 0.1 μM, SH-SY5Y) is given as 66%; in data set [4] it was 70%. Further, in the data set with SH-SY5Y neuronal cells (piperine 100 μM to 10 μM with staurosporine 0.1 μM, 5 h), the “reduction of the staurosporine induced apoptosis” value was “significant reduction”. For the same compound, the “apoptotic effect by themselves” value in the data set with SH-SY5Y neuronal cells (without staurosporine) is “neither piperine nor derivatives thereof exhibited an apoptotic effect by themselves”. Further, the solubility in water entry in data set [1] was “essentially insoluble in water”. Also, the “neurogenesis (NeuN/BrdU-positive cells per slice) compared to the control level” value in the data set with adult rats (1 mg/kg i.p. once daily for 5 days (total 5 mg/kg)) and in the data set with adult rats (10 mg/kg i.p. once daily for 5 days (total 50 mg/kg)) was “clearly elevated levels of neurogenesis” each time. The “maximum concentration in rat brain tissue” value in data set [2] (i.v. bolus of 50 mg/kg) is given as “about 4 μg/ml”. Also, the “passage of the blood-brain-barrier” value in data set [2] (rat, in vivo) is on record as “passes the intact blood-brain-barrier”. The “time of peak blood levels after dosing” value in data set [3] was 1 to 2 h. Moreover, in data set [5], the tolerability entry was “well tolerated”. In addition, the anti-inflammatory activity entry in [6] was “significant anti-inflammatory activity”. Besides, in the data set with mice, the “seizure activity induced by L-glutamate, N-methyl-D-aspartate or guanidinosuccinate” value is listed as “did not significantly block seizure activity”. In addition, the “clonic convulsions induced by kainate” value with mice (injected intra-peritoneally) is on record as “inhibited clonic convulsions”.
